Experimental data published in patent US4578382A, “4-acylamino-1-azaadamantanes, and compositions for use thereof in medicine” (Etablissements Nativelle S.A., priority 1981, dated 1986).
Where two headings read alike, the source gives them in different places.

Legend:
anesthetized dog [1] = test: Hemodynamic (cardiovascular) tolerance in the anesthetized dog; type: in vivo; conditions: i.v.; for Cardiac Flow, percentage of variation / Cardiac Frequency, percentage of variation / Systolic Arterial Pressure, percentage of variation / Total Peripheral Resistances, percentage of variation / dp/dt/p Left Ventricular, percentage of variation: vs control period
Method: The hemodynamic tolerance of the derivatives of the invention was studied on dogs anesthesized with sodium pentobarbital. Endocavitary pressures were measured by means of catheters connected to Statham sensors while external recording of the electrocardiogram (E.C.G.) provided the measurement of cardiac frequency. Cardiac flow was measured by means of an electromagnetic sensor placed on the beginning of the aorta. The total peripheral resistances R were calculated from the value of the average aortic pressure (P) and the cardiac flow (Q) in accordance with the formula R=P/Q.
After measurement of the parameters during a control period, the derivatives were injected intravenously in cumulative doses (30 minute interval between doses). The variations of the parameters in relation to the control period were measured within 20 and 30 minutes after each injection and are expressed as a percentage of variation in relation to the control.
Table 2 summarizes the variations in hemodynamic parameters observed between the first and last injections.

[2] = test system: ventricular arrhythmias with adrenalin; test: Test with adrenalin after experimental infarct; type: in vivo, dog
Source text: (§1) Narcisse et al, Ann. Pharma. Fr., 37, 325-330 (1979), in the rat by the aconitine intoxication test of S. Witchitz et al, Coeur Med. Int., X(2), 281-286, (1971) and in the dog by the Harris test described in Circulation, 1, 1318, (1950) and by the test with adrenalin after experimental infarct of I. J. Steffe et al, J. Pharmacol. Exp. Ther., 214, 50-57 (1980).
2 to 5 days after an experimental infarct, the effects of discontinuous injections (in intravenous bolus of […] of basic adrenalin) of adrenalin were observed on the electrocardioagram of the conscious dog.
During a first phase (control) of the experiment, three successive injections of adrenalin were given and, in the 2 minutes following each injection, the frequency of the ventricular extrasystoles was measured. In this manner, by increasing the dose of adrenalin as necessary, it was possible to determine the dose which caused the appearance of ventricular extrasystoles at a higher frequency than or equal to half the total number of ventricular systoles.
After injection of the derivative to be tested, the same dose of adrenalin was reinjected after 5 minutes, then 30 minutes, 60 minutes, 90 minutes, etc., and its effects were compared to those observed during the control period.
The results therein are expressed as a percentage of extrasystoles (on the total number of systoles) measured during the 2 minutes following the injection of adrenalin before and after the administration of the derivative to be tested.

[3] = Acute toxicity in the mouse (LD 50, Litchfield and Wilcoxon); conditions: in vivo
Method: The acute toxicity of the derivatives of the invention were studied by intraperitoneal administration (I.P.) on the mouse (10 animals, 5 males and 5 females per dose) and calculation of the lethal dose 50 (LD 50) in accordance with the method of Litchfield and Wilcoxon (J. Pharmacol. 96, 99-113 (1949)).
In certain cases (derivatives of Examples 4, 6, 9), the LD 50 was also calculated after oral administration (P.O.) of the derivatives.

[4] = test system: ventricular arrhythmias and death induced by the aconitine; test: Aconitine intoxication test in the anesthetized rat; type: in vivo; conditions: i.v., vs untreated control
Source text: as §1
The anesthetized rat was intoxicated with an intravenous perfusion of aconitine while its electrocardiogram (ECG) was permanently recorded. During the perfusion at constant rate, the time necessary for the appearance of ventricular arrhythmias, successive extrasystoles (ESV), then stable ventricular tachycardium (TV) and the time within which the animal died were measured.
The animals were divided into a control group (untreated) and treated groups (different doses). The results are expressed as a percentage of prolonging the time of appearance of the arrhythmias and of death of the treated groups in reaction to the control group.
The results obtained are shown in Table 4 below and express the percentage of prolongation of the time of appearance of ventricular arrhythmias (ventricular extrasystoles and ventricular tachycardiums), and of the death, induced by the aconitine after an intravenous injection (I.V.) of several derivatives of the invention, in relation to a group of untreated control animals.

anesthetized dog [5] = test: Electrophysiological studies on the anesthetized dog; type: in vivo; conditions: i.v.
Method: This study was carried out on dogs anesthetized with pentobarbital, with a closed thorax, by means of bipolar catheter-electrodes introduced into the cardiac cavities by transcutaneous venous and arterial means. The surface electrocardiogram (standard derivation D2) is recorded permanently.
By means of a programmable JANSEN (R) stimulator, the following parameters may be measured:
spontaneous cardiac frequency (FC);
sinus recuperation time (SRTc) after auricular stimulation imposed at 160 b/mn for 1 mn;
intracardiac conduction times (auriculohisien at a constant frequency, His-Purkinje, intraventricular);
the effective and functional refractory periods measured at an imposed constant frequency, with the extrastimulus method.
During the electrophysiological study, the derivatives were injected intravenously for 2 minutes for each dose and at 30 minute intervals between each dose. The doses are expressed as a cumulative value and as a base term.
The measurement of the various parameters was carried out before the injection of the first dose (control period) and from 10 to 28 minutes after the injection of each dose of the substance. The results are expressed as a percentage of variation in relation to the control period.

[6] = Lawson test (cardiac antifibrillatory power, chloroform); conditions: in vivo, ip; mouse, intraperitoneal; read-out: Maximum Dose Tolerated
[7] = test system: anoxic ventricular fibrillation; test: as above; type: in vivo; conditions: ip; mouse, intraperitoneal, 10 minutes before chloroform
Method: The Lawson test is a test for the study of the cardiac antifibrillatory power of the derivatives. The mice (20 per group) received an intraperitoneal injection of the derivative 10 minutes before being placed in a chloroform-saturated atmosphere. Upon respiratory arrest, the thorax was opened (5 to 10 seconds) and whether or not the heart was in ventricular fibrillation was checked. The efficacy dose 50 (ED 50) of the derivative being studied is the dose which protects half the mice against anoxic ventricular fibrillation.

[8] = cumulative doses 0.1 to 1 mg/kg
[9] = 1.3 mg/kg, control period 85% of ESV
[10] = ip, intraperitoneal, read-out: LD 50 I.P.
[11] = doses 0.1 to 1.4 mg/kg, 1 evaluation
[12] = cumulative doses 0.1 to 3 mg/kg
[13] = 4.3 mg/kg, control period 94% of ESV
[14] = doses 0.5 to 5 mg/kg, 3 evaluations
[15] = 10 mg/kg, control period 40% of ESV
[16] = cumulative doses 0.3 to 10 mg/kg
[17] = 4 mg/kg, control period 71% of ESV

CC1(NC(=O)CC(c2ccccc2)c2ccccc2)C2CC3CC1CN(C2)C3(C)C (single isomer, unassigned) [Example 6, N-(3,3-diphenylpropionyl)-4-amino-4,8,8-trimethyl-1-azaadamantane]
Cardiac frequency, maximum variation (anesthetized dog [1]; anesthetized dog): +10%
Cardiac Flow, percentage of variation (anesthetized dog [1]; [8]): -3 to -18%
Cardiac Frequency, percentage of variation (anesthetized dog [1]; [8]): -3 to +10%
Systolic Arterial Pressure, percentage of variation (anesthetized dog [1]; [8]): -8 to -16%
Total Peripheral Resistances, percentage of variation (anesthetized dog [1]; [8]): 0%
dp/dt/p Left Ventricular, percentage of variation (anesthetized dog [1]; [8]): -6 to -13%
ESV Percentage at 5 min [2, 9]: 29%
ESV Percentage at 30 min [2, 9]: 17%
ESV Percentage at 60 min [2, 9]: 17%
LD50 [3, 10]: 51 mg/kg
LD50 ([3]; oral, read-out: LD 50 P.O.): 380 mg/kg
Prolongation of time of appearance of ventricular extrasystoles (ESV) ([4]; 1 mg/kg): +52%
Prolongation of time of appearance of ventricular tachycardium (TV) ([4]; 1 mg/kg): +93%
Prolongation of time to death ([4]; 1 mg/kg): +69%
Prolongation of time of appearance of ventricular extrasystoles (ESV) ([4]; 2 mg/kg): +67%
Prolongation of time of appearance of ventricular tachycardium (TV) ([4]; 2 mg/kg): +139%
Prolongation of time to death ([4]; 2 mg/kg): +97%
F.C. (cardiac frequency), variation (anesthetized dog [5]; [11]): 0 to +32%
HV (time of His-Purkinje conduction), variation (anesthetized dog [5]; [11]): 0 to +92%
PREA (effective auricular refractory period), variation (anesthetized dog [5]; [11]): +18 to +50%
PREV (effective ventricular refractory period), variation (anesthetized dog [5]; [11]): +10 to +20%
QRS (time of intraventricular conduction), variation (anesthetized dog [5]; [11]): 0 to +50%
St-H (time of auriculohisien conduction), variation (anesthetized dog [5]; [11]): 0 to +25%

CC1(NC(=O)c2ccc(N)cc2)C2CC3CC1CN(C2)C3(C)C (stereo not shown) [Example 3, N-(p-aminobenzoyl)-4-amino-4,8,8-trimethyl-1-azaadamantane]
Cardiac Flow, percentage of variation (anesthetized dog [1]; [12]): +7 to -32%
Cardiac Frequency, percentage of variation (anesthetized dog [1]; [12]): 0 to -14%
Systolic Arterial Pressure, percentage of variation (anesthetized dog [1]; [12]): -3 to -33%
Total Peripheral Resistances, percentage of variation (anesthetized dog [1]; [12]): -10 to +7%
dp/dt/p Left Ventricular, percentage of variation (anesthetized dog [1]; [12]): +14 to -50%
MTD [6]: 50 mg/kg
ESV Percentage at 5 min [2, 13]: 63%
ESV Percentage at 30 min [2, 13]: 77%
ESV Percentage at 60 min [2, 13]: 90%
LD50 [3, 10]: 95 mg/kg
ED50 [7]: 37 mg/kg
F.C. (cardiac frequency), variation (anesthetized dog [5]; [14]): 0 to -24%
HV (time of His-Purkinje conduction), variation (anesthetized dog [5]; [14]): +13 to +98%
PREA (effective auricular refractory period), variation (anesthetized dog [5]; [14]): +2 to +50%
PREV (effective ventricular refractory period), variation (anesthetized dog [5]; [14]): 0 to +20%
QRS (time of intraventricular conduction), variation (anesthetized dog [5]; [14]): +8 to +39%
St-H (time of auriculohisien conduction), variation (anesthetized dog [5]; [14]): +2 to +76%

COc1ccc(CCC(=O)NC2(C)C3CC4CC2CN(C3)C4(C)C)cc1 (stereo not shown) [Example 5, N-[3-(p-methoxy-phenyl)propionyl]-4-amino-4,8,8-trimethyl-1-azaadamantane]
Cardiac frequency, in words (anesthetized dog [1]; anesthetized dog): the frequency does not change
Cardiac Flow, percentage of variation (anesthetized dog [1]; cumulative doses 1 to 10 mg/kg): +4 to -8%
Cardiac Frequency, percentage of variation (anesthetized dog [1]; cumulative doses 1 to 10 mg/kg): 0%
Systolic Arterial Pressure, percentage of variation (anesthetized dog [1]; cumulative doses 1 to 10 mg/kg): 0 to +3%
Total Peripheral Resistances, percentage of variation (anesthetized dog [1]; cumulative doses 1 to 10 mg/kg): -6 to +11%
dp/dt/p Left Ventricular, percentage of variation (anesthetized dog [1]; cumulative doses 1 to 10 mg/kg): +2 to -15%
MTD [6]: 200 mg/kg
ESV Percentage at 5 min [2, 15]: 9%
ESV Percentage at 30 min [2, 15]: 14%
ESV Percentage at 60 min [2, 15]: 16%
LD50 [3, 10]: 250 mg/kg
Prolongation of time of appearance of ventricular extrasystoles (ESV) ([4]; 5 mg/kg): +41%
Prolongation of time of appearance of ventricular tachycardium (TV) ([4]; 5 mg/kg): +20%
Prolongation of time to death ([4]; 5 mg/kg): +21%
Prolongation of time of appearance of ventricular extrasystoles (ESV) ([4]; 10 mg/kg): +51%
Prolongation of time of appearance of ventricular tachycardium (TV) ([4]; 10 mg/kg): +48%
Prolongation of time to death ([4]; 10 mg/kg): +36%
Prolongation of time of appearance of ventricular extrasystoles (ESV) ([4]; 20 mg/kg): +65%
Prolongation of time of appearance of ventricular tachycardium (TV) ([4]; 20 mg/kg): +54%
Prolongation of time to death ([4]; 20 mg/kg): +50%
ED50 [7]: 61 mg/kg

CC1(NC(=O)c2ccccc2)C2CC3CC1CN(C2)C3(C)C (stereo not shown) [Example 7, 4-N-benzoylamino-4,8,8-trimethyl-1-azaadamantane]
MTD [6]: 150 mg/kg
LD50 [3, 10]: 230 mg/kg
Prolongation of time of appearance of ventricular extrasystoles (ESV) ([4]; 5 mg/kg): +59%
Prolongation of time of appearance of ventricular tachycardium (TV) ([4]; 5 mg/kg): +53%
Prolongation of time to death ([4]; 5 mg/kg): +29%
Prolongation of time of appearance of ventricular extrasystoles (ESV) ([4]; 10 mg/kg): +35%
Prolongation of time of appearance of ventricular tachycardium (TV) ([4]; 10 mg/kg): +35%
Prolongation of time to death ([4]; 10 mg/kg): +45%
Prolongation of time of appearance of ventricular extrasystoles (ESV) ([4]; 20 mg/kg): +111%
Prolongation of time of appearance of ventricular tachycardium (TV) ([4]; 20 mg/kg): +105%
Prolongation of time to death ([4]; 20 mg/kg): +89%
ED50 [7]: 76 mg/kg

COc1ccc(C(=O)NC2(C)C3CC4CC2CN(C3)C4(C)C)cc1 (stereo not shown) [Example 8, N-(p-methoxybenzoyl)-4-amino 4,8,8-trimethyl-1-azaadamantane]
Cardiac frequency, maximum variation (anesthetized dog [1]; anesthetized dog): -15%
Cardiac Flow, percentage of variation (anesthetized dog [1]; [16]): -7 to -22%
Cardiac Frequency, percentage of variation (anesthetized dog [1]; [16]): -7 to -15%
Systolic Arterial Pressure, percentage of variation (anesthetized dog [1]; [16]): -6 to -21%
Total Peripheral Resistances, percentage of variation (anesthetized dog [1]; [16]): 0%
dp/dt/p Left Ventricular, percentage of variation (anesthetized dog [1]; [16]): 0 to -28%
MTD [6]: 100 mg/kg
ESV Percentage at 5 min [2, 17]: 35%
ESV Percentage at 30 min [2, 17]: 36%
ESV Percentage at 60 min [2, 17]: 53%
LD50 [3, 10]: 250 mg/kg
Prolongation of time of appearance of ventricular extrasystoles (ESV) ([4]; 5 mg/kg): +45%
Prolongation of time of appearance of ventricular tachycardium (TV) ([4]; 5 mg/kg): +43%
Prolongation of time to death ([4]; 5 mg/kg): +46%
Prolongation of time of appearance of ventricular extrasystoles (ESV) ([4]; 10 mg/kg): +71%
Prolongation of time of appearance of ventricular tachycardium (TV) ([4]; 10 mg/kg): +84%
Prolongation of time to death ([4]; 10 mg/kg): +215%
Prolongation of time of appearance of ventricular extrasystoles (ESV) ([4]; 20 mg/kg): +98%
Prolongation of time of appearance of ventricular tachycardium (TV) ([4]; 20 mg/kg): +107%
Prolongation of time to death ([4]; 20 mg/kg): +112%
ED50 [7]: 49 mg/kg
